{"source": "PubChem BioAssay (NCI)", "assay_in_all_cases": "DTP human tumour cell line panel, 48 h", "key": {"[1]": {"system": "MDA-MB-231 breast"}, "[2]": {"system": "SNB-19 CNS"}, "[3]": {"system": "HCC-2998 colon"}, "[4]": {"system": "NCI-H226 lung"}, "[5]": {"system": "OVCAR-5 ovarian"}, "[6]": {"system": "M14 melanoma"}, "[7]": {"system": "A498 renal"}, "[8]": {"system": "UACC-257 melanoma"}, "[9]": {"system": "HS 578T breast"}, "[10]": {"system": "NCI-H522 lung"}, "[11]": {"system": "RPMI-8226 leukemia"}, "[12]": {"system": "KM12 colon"}, "[13]": {"system": "HCT-116 colon"}, "[14]": {"system": "MALME-3M melanoma"}, "[15]": {"system": "CAKI-1 renal"}, "[16]": {"system": "OVCAR-3 ovarian"}, "[17]": {"system": "K-562 leukemia"}, "[18]": {"system": "SF-268 CNS"}, "[19]": {"system": "OVCAR-8 ovarian"}, "[20]": {"system": "A549 NSCLC"}, "[21]": {"system": "CCRF-CEM leukemia"}, "[22]": {"system": "SF-295 CNS"}, "[23]": {"system": "U251 CNS"}, "[24]": {"system": "NCI-H460 lung"}, "[25]": {"system": "DU-145 prostate"}, "[26]": {"system": "UO-31 renal"}, "[27]": {"system": "EKVX NSCLC"}, "[28]": {"system": "HOP-92 NSCLC"}, "[29]": {"system": "MCF7 breast"}, "[30]": {"system": "MOLT-4 leukemia"}}, "note": "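Compound exposure: 48 hours, 5 concentrations, 96-well plates. GI50 marks 50% less growth. TGI is the concentration that stops growth completely.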"}
{"smiles": "CCCC(=O)NC(c1ccc(N(CC)CC)cc1)c1cc(C)c2cccnc2c1O", "note": "(configuration not stated)", "values": [{"measurement": "GI50", "setting": "[1]", "result": 539, "unit": "nM"}, {"measurement": "TGI", "setting": "[1]", "result": "> 100000", "unit": "nM"}, {"measurement": "GI50", "setting": "[2]", "result": 464, "unit": "nM"}, {"measurement": "TGI", "setting": "[2]", "result": "> 100000", "unit": "nM"}, {"measurement": "GI50", "setting": "[3]", "result": 570, "unit": "nM"}, {"measurement": "TGI", "setting": "[3]", "result": "> 100000", "unit": "nM"}, {"measurement": "GI50", "setting": "[4]", "result": 513, "unit": "nM"}, {"measurement": "TGI", "setting": "[4]", "result": 4260, "unit": "nM"}, {"measurement": "GI50", "setting": "[5]", "result": 791, "unit": "nM"}, {"measurement": "TGI", "setting": "[5]", "result": "> 100000", "unit": "nM"}, {"measurement": "GI50", "setting": "[6]", "result": 462, "unit": "nM"}, {"measurement": "TGI", "setting": "[6]", "result": 5120, "unit": "nM"}, {"measurement": "GI50", "setting": "[7]", "result": "> 100000", "unit": "nM"}, {"measurement": "TGI", "setting": "[7]", "result": "> 100000", "unit": "nM"}, {"measurement": "GI50", "setting": "[8]", "result": 834, "unit": "nM"}, {"measurement": "TGI", "setting": "[8]", "result": "> 24600", "unit": "nM"}, {"measurement": "GI50", "setting": "[9]", "result": 358, "unit": "nM"}, {"measurement": "TGI", "setting": "[9]", "result": "> 100000", "unit": "nM"}, {"measurement": "GI50", "setting": "[10]", "result": 319, "unit": "nM"}, {"measurement": "GI50", "setting": "[11]", "result": 520, "unit": "nM"}, {"measurement": "TGI", "setting": "[11]", "result": "> 100000", "unit": "nM"}, {"measurement": "GI50", "setting": "[12]", "result": 454, "unit": "nM"}, {"measurement": "TGI", "setting": "[12]", "result": "> 100000", "unit": "nM"}, {"measurement": "GI50", "setting": "[13]", "result": 381, "unit": "nM"}, {"measurement": "TGI", "setting": "[13]", "result": "> 100000", "unit": "nM"}, {"measurement": "GI50", "setting": "[14]", "result": 1450, "unit": "nM"}, {"measurement": "TGI", "setting": "[14]", "result": "> 87300", "unit": "nM"}, {"measurement": "GI50", "setting": "[15]", "result": 381, "unit": "nM"}, {"measurement": "GI50", "setting": "[16]", "result": 374, "unit": "nM"}, {"measurement": "TGI", "setting": "[16]", "result": "> 100000", "unit": "nM"}, {"measurement": "GI50", "setting": "[17]", "result": 336, "unit": "nM"}, {"measurement": "TGI", "setting": "[17]", "result": "> 100000", "unit": "nM"}, {"measurement": "GI50", "setting": "[18]", "result": 438, "unit": "nM"}, {"measurement": "TGI", "setting": "[18]", "result": 32600, "unit": "nM"}, {"measurement": "GI50", "setting": "[19]", "result": 381, "unit": "nM"}, {"measurement": "TGI", "setting": "[19]", "result": "> 100000", "unit": "nM"}, {"measurement": "GI50", "setting": "[20]", "result": 737, "unit": "nM"}, {"measurement": "TGI", "setting": "[20]", "result": "> 100000", "unit": "nM"}, {"measurement": "GI50", "setting": "[21]", "result": 407, "unit": "nM"}, {"measurement": "TGI", "setting": "[21]", "result": "> 100000", "unit": "nM"}, {"measurement": "GI50", "setting": "[22]", "result": 352, "unit": "nM"}, {"measurement": "TGI", "setting": "[22]", "result": "> 100000", "unit": "nM"}, {"measurement": "GI50", "setting": "[23]", "result": 386, "unit": "nM"}, {"measurement": "TGI", "setting": "[23]", "result": "> 100000", "unit": "nM"}, {"measurement": "GI50", "setting": "[24]", "result": 247, "unit": "nM"}, {"measurement": "GI50", "setting": "[25]", "result": 710, "unit": "nM"}, {"measurement": "TGI", "setting": "[25]", "result": "> 100000", "unit": "nM"}, {"measurement": "GI50", "setting": "[26]", "result": 302, "unit": "nM"}, {"measurement": "TGI", "setting": "[26]", "result": 5670, "unit": "nM"}, {"measurement": "GI50", "setting": "[27]", "result": 313, "unit": "nM"}, {"measurement": "TGI", "setting": "[27]", "result": 5040, "unit": "nM"}, {"measurement": "GI50", "setting": "[28]", "result": 306, "unit": "nM"}, {"measurement": "TGI", "setting": "[28]", "result": "> 100000", "unit": "nM"}, {"measurement": "GI50", "setting": "[29]", "result": 303, "unit": "nM"}, {"measurement": "TGI", "setting": "[29]", "result": "> 100000", "unit": "nM"}, {"measurement": "GI50", "setting": "[30]", "result": 397, "unit": "nM"}, {"measurement": "TGI", "setting": "[30]", "result": "> 100000", "unit": "nM"}]}
